Measured values reported in the supplement of paper PMC10307832.

Tests used:
Test in all cases: relative viability (nuclei count vs DMSO), 5 days (fraction); higher = more cells survive
[1] = compound: O=C(/C=C/c1cccnc1)NCCCCC1CCN(C(=O)c2ccccc2)CC1 [Daporinad] + CC(C)C[C@H](NC(=O)[C@H](Cc1ccccc1)NC(=O)c1cnccn1)B(O)O [Bortezomib] (partner 0.002 µM)
How it was run: (§1)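 Lung cancer cell lines were seeded in 1536-well plates and dosed by pin tool the next day, with either a single drug or a fixed anchor-drug dose combined with five library-drug doses (not always all listed) spaced in √10 steps. Five days later, one step fixed the cells and stained their nuclei (final 0.05% Triton X-100, 1% formaldehyde, 1 ug/ml Hoechst), and nuclei were counted on 4× images. Relative viability is the nuclei count in treated wells divided by the count in vehicle wells, and each value is the median of duplicate plates.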

[2] = compound: COc1cc(Nc2ncc(F)c(Nc3ccc4c(n3)NC(=O)C(C)(C)O4)n2)cc(OC)c1OC [R406] + Cc1nc(NC(=O)N2CCC[C@H]2C(N)=O)sc1-c1ccnc(C(C)(C)C(F)(F)F)c1 [Alpelisib] (partner 2 µM)
How it was run: as §1

[3] = compound: COc1cc(Nc2ncc(F)c(Nc3ccc4c(n3)NC(=O)C(C)(C)O4)n2)cc(OC)c1OC [R406]
How it was run: (§2)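 Following overnight incubation at 37 °C, lung cancer cell lines in 1536-well plates were pinned with five library-drug doses (not always all listed) in √10 steps on vehicle-anchored plates. The cells then spent 5 days without medium change before a combined fix, permeabilisation and Hoechst stain, 4× imaging and MetaXpress nuclear counts. Viability is the treated-to-vehicle ratio of nuclei, taken as the median across plates. Only plates with control CV below 25% and at least one doubling passed.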

[4] = compound: O=C(/C=C/c1cccnc1)NCCCCC1CCN(C(=O)c2ccccc2)CC1 [Daporinad]
How it was run: as §2

Row | Cell Line | relative viability ([1]; first compound 0.0005 µM) | relative viability ([1]; first compound 0.001581 µM) | relative viability ([1]; first compound 0.005 µM) | relative viability ([1]; first compound 0.01581 µM) | relative viability ([2]; first compound 0.08 µM) | relative viability ([2]; first compound 0.253 µM) | relative viability ([2]; first compound 0.8 µM) | relative viability ([2]; first compound 2.53 µM) | relative viability ([2]; first compound 8 µM) | relative viability ([3]; 0.08 µM) | relative viability ([3]; 0.253 µM) | relative viability ([3]; 0.8 µM) | relative viability ([3]; 2.53 µM) | relative viability ([3]; 8 µM) | relative viability ([4]; 0.0005 µM) | relative viability ([4]; 0.001581 µM) | relative viability ([4]; 0.005 µM) | relative viability ([4]; 0.01581 µM)
1 | NCI-H1975 | 0.397 | 0.395 | 0.332 | 0.402 | 0.624 | 0.598 | 0.682 | 0.276 | 0.157 | 0.848 | 1.03 | 1.02 | 0.479 | 0.385 | 1.05 | 0.916 | 1.01 | 0.968
2 | CAL-12T | 0.925 |  | 0.817 | 0.392 | 1.3 | 1.54 | 1.83 | 1.03 | 0.923 | 0.993 | 1.22 | 1.12 | 0.511 | 0.434 | 0.904 | 1.03 | 0.735 | 0.269
3 | NCI-H2342 |  |  |  |  |  |  |  |  |  | 1 | 0.964 | 1.01 | 0.916 | 0.93 | 1.08 | 0.839 | 0.952 | 0.974
4 | HCC-44 | 0.83 | 0.843 | 0.841 | 0.825 | 0.787 | 1 | 0.883 | 0.739 | 0.262 | 0.979 | 0.976 | 0.94 | 0.928 | 0.711 | 0.992 | 0.993 | 0.97 | 1
5 | EKVX | 0.939 | 1.16 | 1.12 | 1.12 | 0.928 | 0.992 | 1.06 | 0.77 | 0.635 | 0.928 | 1.12 | 1.1 | 0.855 | 0.722 | 0.933 | 0.95 | 0.974 | 1.14
6 | NCI-H1651 | 0.953 | 0.952 | 1.01 | 0.788 | 0.9 | 1.03 | 1.04 | 0.699 | 0.512 | 0.926 | 1.1 | 1.05 | 0.899 | 0.667 | 1.01 | 1.03 | 1.05 | 0.874
7 | NCI-H1648 |  |  |  |  |  |  |  |  |  | 0.759 | 0.614 | 1.03 | 0.795 | 0.786 | 0.836 | 0.933 | 0.9 | 0.835
8 | NCI-H1703 | 0.403 | 0.382 | 0.422 | 0.196 | 0.307 | 0.281 | 0.368 | 0.183 | 0.173 | 0.966 | 0.924 | 1.21 | 0.238 | 0.172 | 1.03 | 1.2 | 1.2 | 0.934
9 | NCI-H1944 |  |  |  |  | 0.758 | 0.84 | 0.757 | 0.652 | 0.512 | 0.932 | 1.08 | 0.986 | 0.858 | 0.783 | 0.921 | 1.05 | 1.07 | 1.02
10 | NCI-H1623 |  |  |  |  |  |  |  |  |  | 0.908 | 1.05 | 1.11 | 0.818 | 0.893 | 0.822 | 1.15 | 0.957 | 1.05
11 | ChaGo-K-1 | 0.912 | 0.574 | 0.859 | 0.562 |  |  |  |  |  | 0.948 | 1.12 | 0.974 | 0.944 | 0.73 | 1.03 | 0.86 | 0.94 | 0.509
12 | NCI-H522 |  |  |  |  |  |  |  |  |  | 0.889 | 1.1 | 1.13 | 0.78 | 0.617 | 1.04 | 0.931 | 1.06 | 0.738
13 | NCI-H1650 | 0.182 | 0.222 | 0.219 | 0.187 |  |  |  |  |  | 1.02 | 1.23 | 1.06 | 0.212 | 0.155 | 0.981 | 1.05 | 1.07 | 0.848
14 | SW 900 |  |  |  |  |  |  |  |  |  | 0.798 | 1.03 | 1.26 | 0.166 | 0.293 | 0.748 | 0.733 | 0.864 | 0.592
15 | NCI-H2170 |  |  |  |  | 0.783 | 0.773 | 0.904 | 0.576 | 0.714 | 0.962 | 0.972 | 1.06 | 0.729 | 0.892 | 0.923 | 1.06 | 1.03 | 1.06
16 | NCI-H358 |  |  |  |  | 0.877 | 0.908 | 1 | 0.373 | 0.234 | 0.935 | 1.04 | 1.03 | 0.339 | 0.246 | 0.877 | 0.929 | 1.03 | 1.06
17 | SK-MES-1 |  |  |  |  | 0.749 | 0.964 | 0.957 | 0.414 | 0.406 | 0.989 | 1.05 | 1.06 | 0.648 | 0.322 | 0.978 | 1.05 | 1.12 | 1.03
18 | LK-2 |  |  |  |  | 0.98 | 1.05 | 1.02 | 0.803 | 0.566 | 0.86 | 1.22 | 1.09 | 0.682 | 0.431 | 0.909 | 1.18 | 0.781 | 0.283
19 | NCI-H1395 |  |  |  |  | 1.13 | 1.04 | 1.09 | 0.813 | 0.619 | 1.01 | 1.05 | 1.02 | 0.713 | 0.635 | 0.88 | 1.09 | 1.09 | 0.969
20 | A549 |  |  |  |  | 0.703 | 0.932 | 0.811 | 0.646 | 0.164 | 0.898 | 1.02 | 1.1 | 0.857 | 0.518 | 1.03 | 1.05 | 0.944 | 0.903
21 | NCI-H1793 |  |  |  |  | 1.08 | 0.691 | 0.921 | 0.434 | 0.32 | 0.731 | 1.17 | 1.13 | 0.159 | 0.279 | 0.801 | 0.959 | 0.984 | 1.09
